For experiment [1], the system named is Streptomyces coelicolor. The experiment in a line: Inhibition of MFS efflux pump in apramycin-resistant cmlR1 null mutant Streptomyces coelicolor assessed as reduction in chloramphenicol MIC at 10 ug/ml after 48 hrs relative to control.
Experiment [2] relates to Streptomyces coelicolor. Nature of the experiment: Inhibition of MFS efflux pump in Streptomyces coelicolor assessed as reduction in chloramphenicol MIC at 25 ug/ml after 48 hrs relative to control.
Experiment [3] deals with Streptomyces coelicolor. Nature of the experiment: Inhibition of MFS efflux pump in apramycin-resistant cmlR2 null mutant Streptomyces coelicolor assessed as reduction in chloramphenicol MIC at 10 ug/ml after 48 hrs relative to control.
The test system of experiment [4] is Streptomyces coelicolor. Nature of the experiment: Inhibition of MFS efflux pump in apramycin-resistant cmlR1 null mutant Streptomyces coelicolor assessed as reduction in chloramphenicol MIC at 50 ug/ml after 48 hrs relative to control.
The test system of experiment [5] is Streptomyces coelicolor. The experiment in a line: Inhibition of MFS efflux pump in apramycin-resistant cmlR1 null mutant Streptomyces coelicolor assessed as reduction in chloramphenicol MIC at 25 ug/ml after 48 hrs relative to control.
In experiment [6] the test system is Streptomyces coelicolor. Nature of the experiment: Inhibition of MFS efflux pump in Streptomyces coelicolor assessed as reduction in chloramphenicol MIC at 10 ug/ml after 48 hrs relative to control.
In experiment [7] the test system is Streptomyces coelicolor. The experiment in a line: Inhibition of MFS efflux pump in Streptomyces coelicolor assessed as reduction in chloramphenicol MIC at 75 ug/ml after 48 hrs relative to control.
For experiment [8], the system named is Streptomyces coelicolor. The experiment in a line: Inhibition of MFS efflux pump in apramycin-resistant cmlR2 null mutant Streptomyces coelicolor assessed as reduction in chloramphenicol MIC at 75 ug/ml after 48 hrs relative to control.
The test system of experiment [9] is Streptomyces coelicolor. Nature of the experiment: Inhibition of MFS efflux pump in apramycin-resistant cmlR2 null mutant Streptomyces coelicolor assessed as reduction in chloramphenicol MIC at 50 ug/ml after 48 hrs relative to control.
Experiment [10] has as its system Streptomyces coelicolor. The experiment in a line: Inhibition of MFS efflux pump in Streptomyces coelicolor assessed as reduction in chloramphenicol MIC at 50 ug/ml after 48 hrs relative to control.
In experiment [11] the test system is Streptomyces coelicolor. The experiment in a line: Inhibition of MFS efflux pump in apramycin-resistant cmlR1 null mutant Streptomyces coelicolor assessed as reduction in chloramphenicol MIC at 75 ug/ml after 48 hrs relative to control.
Experiment [12] has as its system Streptomyces coelicolor. Nature of the experiment: Inhibition of MFS efflux pump in apramycin-resistant cmlR2 null mutant Streptomyces coelicolor assessed as reduction in chloramphenicol MIC at 25 ug/ml after 48 hrs relative to control.
The test system of experiment [13] is Streptomyces coelicolor. Nature of the experiment: Antimicrobial activity against Streptomyces coelicolor B759 overexpressing cmlR2 after 48 hrs relative to wild type. Type of experiment: functional.
The test system of experiment [14] is Streptomyces coelicolor. Nature of the experiment: Antimicrobial activity against apramycin-resistant cmlR1 null mutant Streptomyces coelicolor B754 after 48 hrs relative to wild type. Type of experiment: functional.
For experiment [15], the system named is Streptomyces coelicolor. The experiment in a line: Antimicrobial activity against apramycin-resistant cmlR2 null mutant Streptomyces coelicolor B756 after 48 hrs relative to wild type. Type of experiment: functional.
In experiment [16] the test system is Streptomyces coelicolor. Nature of the experiment: Antimicrobial activity against Streptomyces coelicolor B758 overexpressing cmlR1 after 48 hrs relative to wild type. Type of experiment: functional.
Experiment [17] deals with Streptomyces coelicolor. Nature of the experiment: Antimicrobial activity against Streptomyces coelicolor after 48 hrs. Type of experiment: functional.

Converted amounts (≈) assume the structure as drawn. Peptide text beside a SMILES is read from it. * marks the point of attachment. βNA = c1ccc2cc(N*)ccc2c1

As usually defined, the MIC is the least concentration at which growth counts as inhibited. A higher MIC goes with weaker potency.

`COC(=O)[C@H]1[C@H]2C[C@@H]3c4[nH]c5cc(OC)ccc5c4CCN3C[C@H]2C[C@@H](OC(=O)c2cc(OC)c(OC)c(OC)c2)[C@@H]1OC`: the fold change (FC) came out at 2.5 with Streptomyces coelicolor [1]; 2.7 in the experiment with Streptomyces coelicolor [2]; 1.3 with Streptomyces coelicolor [3]; 3.3 in the experiment on Streptomyces coelicolor [4]; 2.5 with Streptomyces coelicolor [5]; 1.3 in the experiment with Streptomyces coelicolor [6]. Also, the fold change (FC) stood at 4 with Streptomyces coelicolor [7]; 2 in the experiment on Streptomyces coelicolor [8]; 2 with Streptomyces coelicolor [9]; 4 with Streptomyces coelicolor [10]; 3.3 in the experiment on Streptomyces coelicolor [11]; 2 with Streptomyces coelicolor [12].
As to `O=C(N[C@H](CO)[C@H](O)c1ccc([N+](=O)[O-])cc1)C(Cl)Cl` [CHLORAMPHENICOL], the “fold change (FC)” value with Streptomyces coelicolor [13] came out at 4; in the experiment on Streptomyces coelicolor [14], 1.6; in the experiment with Streptomyces coelicolor [15] it was 16; with Streptomyces coelicolor [16] it was 2.
Turning to `N=C(N)NCCC[C@H](NC(=O)[C@@H](N)Cc1ccccc1)C(=O)Nc1ccc2ccccc2c1` [PABETAN] (H-Phe-Arg-βNA), the fold change (FC) in the experiment with Streptomyces coelicolor [1] worked out at 2.5; with Streptomyces coelicolor [2] it was 3.2; with Streptomyces coelicolor [3], 1.7; in the experiment with Streptomyces coelicolor [4], 3.3; with Streptomyces coelicolor [5] it was 3.3; in the experiment on Streptomyces coelicolor [6], 2.7. In addition, the fold change (FC) in the experiment on Streptomyces coelicolor [7] amounted to 8; in the experiment with Streptomyces coelicolor [8], 1.7; with Streptomyces coelicolor [9], 1.7; in the experiment with Streptomyces coelicolor [10], 4; with Streptomyces coelicolor [11], 5; in the experiment on Streptomyces coelicolor [12], 1.7. In addition, it took 200 µg/mL (≈ 448 µM) to inhibit growth against Streptomyces coelicolor [17] (MIC).
Turning to `CS(=O)(=O)c1ccc([C@@H](O)[C@@H](CF)NC(=O)C(Cl)Cl)cc1` [FLORFENICOL], the “fold change (FC)” value in the experiment on Streptomyces coelicolor [14] is 1.8; in the experiment on Streptomyces coelicolor [15], 3.
As to `CS(=O)(=O)c1ccc([C@@H](O)[C@@H](CO)NC(=O)C(Cl)Cl)cc1` [THIAMPHENICOL], the “fold change (FC)” value in the experiment with Streptomyces coelicolor [15] is listed as greater than 10.

Values taken from ChEMBL document CHEMBL1649248, “Two distinct major facilitator superfamily drug efflux pumps mediate chloramphenicol resistance in Streptomyces coelicolor” (2009).
